Assay results taken from patent US20260279694A1, “ELECTROLYTE SOLUTION FOR HYBRID ELECTROLYTIC CAPACITORS AND HYBRID ELECTROLYTIC CAPACITOR” (SANYO CHEMICAL INDUSTRIES, LTD., priority 2023, published 2026).

Assay: Measurement of acid dissociation constant (pKa) by titration in methanol
Type: physicochemical
Details: 25° C.; 1 part by weight acid in 99 parts methanol titrated with 0.1 mol/L methanolic potassium hydroxide; pH at half the titrant of first equivalence point
Protocol: At 25° C., 99 parts by weight of methanol was added to 1 part by weight of a carboxylic acid (A), and the contents were shaken and mixed until the carboxylic acid (A) was completely dissolved. A 0.1 mol/L methanolic potassium hydroxide solution was added dropwise to the resulting methanol solution of the carboxylic acid (A) to obtain a titration curve having inflection points, and among the inflection points, an inflection point at which the amount of titrant added was the smallest was defined as an equivalence point. The pH at half the amount of titrant added at the equivalence point on the obtained titration curve was read, and the pH was defined as the acid dissociation constant (pKa) of the carboxylic acid (A).
The pKa of the acid component (A′) was also measured in the same manner as the pKa of the carboxylic acid (A).

Row | pKa | Compound | Acid dissociation constant (pKa)
1 | – | O=C(O)c1c(C(=O)O)c(C(=O)O)c(C(=O)OCCO)c(C(=O)O)c1C(=O)O [Example A7, mellitic acid ethylene glycol monoester] | 1.7
2 | – | pyromellitic acid polyethylene glycol monoester [Example A6] | 2.9
3 | 2.8 | O=C(O)c1cc(C(=O)O)c(C(=O)O)cc1C(=O)O [Pyromellitic acid, pyromellitic acid, reference compound] | –
4 | – | O=C(O)c1cc(C(=O)O)c(C(=O)OCCO)cc1C(=O)O [Example A5, pyromellitic acid ethylene glycol monoester] | 2.6
5 | 9.8 | OB(O)O [Boric acid, boric acid, reference compound] | –
6 | – | O=C(O)c1ccccc1C(=O)OCCCCCCCCCCO [Example A11, phthalic acid 1,10-decanediol monoester] | 4.0
7 | 3.4 | O=C(O)c1ccc(C(=O)O)o1 [2,5-Furandicarboxylic acid, 2,5-furandicarboxylic acid, reference compound] | –
8 | 6.7 | O=C(O)CCCCCCCC(=O)O [Azelaic acid, azelaic acid, reference compound] | –
9 | – | trimellitic acid polyethylene glycol monoester [Example A4] | 3.6
10 | – | CCCCCCCCCCOC(=O)c1ccccc1C(=O)O [Example A10, phthalic acid n-decanol monoester] | 3.9
11 | – | O=C(O)c1ccccc1C(=O)OCCO [Example A1, phthalic acid ethylene glycol monoester] | 3.8
12 | 3.5 | O=C(O)c1ccc(C(=O)O)c(C(=O)O)c1 [Trimellitic acid, trimellitic acid, reference compound] | –

Row | Compound | pKa | Acid dissociation constant (pKa)
13 | O=C(O)c1ccccc1C(=O)O [Phthalic acid, phthalic acid, reference compound] | 3.9 | –
